Values of other authors as cited in US10159714B2, “Compositions, devices and methods of use thereof for the treatment of cancers” (Intarcia Therapeutics, Inc., priority 2011, dated 2018).
Each block holds one compound with its values, some of them ahead of it. Where no end group is shown, it is not given here.

Experiments:
[1] = tested on: prostatic tumors in Noble and Dunning male rats and DMBA-induced mammary tumors in female rats; details: hormone-dependent tumors in rats
[2] = tested on: gonadotropin secretion / testosterone
fasting hyperglycemia = details: type 2 diabetic patients

- oral activity ([2]; in vivo, po): not active when given orally
Compound: CCNC(=O)[C@@H]1CCCN1C(=O)[C@H](CCCNC(=N)N)NC(=O)[C@H](CC(C)C)NC(=O)[C@@H](CC(C)C)NC(=O)[C@H](Cc1ccc(O)cc1)NC(=O)[C@H](CO)NC(=O)[C@H](Cc1c[nH]c2ccccc12)NC(=O)[C@H](Cc1c[nH]cn1)NC(=O)[C@@H]1CCC(=O)N1 [leuprolide acetate]
- tumor growth [1]: inhibition of the growth
- time to decrease of LH, FSH and testosterone after initiation of treatment ([2]; continuous administration): two to six
- testosterone level ([2]; males, continuous administration): reduced to castrate levels

Compound: GLP-1(7-37) (HAEGTFTSDVSSYLEGQAAKEFIAWLVKGRG; Glucagon-like peptide 1(7-37); UniProt P01275 98-128, looked up) [form of the GLP-1 peptide]
- effect on fasting hyperglycemia (fasting hyperglycemia): normalize fasting hyperglycemia

Compound: glucagon-like peptide-1 (7-36) amide (HAEGTFTSDVSSYLEGQAAKEFIAWLVKGR-NH2; listed as Homo sapiens) [GLP-1(7-36)amide]
- effect on fasting hyperglycemia (fasting hyperglycemia): normalize fasting hyperglycemia
